# How the values were obtained:
# [1] = system: wound region of rabbit ears (granulation tissue, capillaries); assay: In vivo wound healing assay (rabbit ear wounds); parameters: species or system New Zealand White rabbits; settings: for Area of granulation tissue / Number of blood vessels / increment of the area of granulation tissue, in words / increment of the number of blood vessels, in words: 5 μM; for Area of granulation tissue / Number of blood vessels: spotted or injected intradermally to wound, negative control = 100%; for increment of the area of granulation tissue, in words / increment of the number of blood vessels, in words: comment on Table 1
# Experimental: Female New Zealand White rabbits (body weight 2.0 kg) were used as experimental animals in this assay. PBS solution containing 0.1% BSA (BSA-PBS solution) was prepared as control solution for negative control group (comparative example 1). sphingosylphosphorylcholine (comparative example 2), phytosphingosine (comparative example 3), N-acethylphytosphingosine (comparative example 4) as positive control group, and tetraacetyl phytosphingosine (example 1) were dissolved in ethanol or methanol respectively. Each portion of the solutions was added to silicone glass tube. Then, it was charged with N2 gas, and added 0.1% BSA-PBS solution. After coupling them with water sonicator and vortex, these solutions were spotted on and injected intradernally to wound region of experimental animals. At the same time, to study an effect of the angiogenesis as concentrations of tetraacethylsphingosine, the animal was treated with 0.1 μM, 1 μM, 2 μM and 5 μM of tetraacethylsphingosine, and campared with the results. Experimental animals were put into special stainless cages which was designed suitably to assay experimental animals, anesthetized by injecting ketanine (3-4 mg/kg) intramuscularly. The hair and corneous tissue of innerside of both ears were removed with shaving and washing, and then were disinfected with 70% ethanol. Four wound regions per ear were formed by using 6 mm punch for sldn histological examination (Stiefel, Germany) under sterile condition if possible, and each wound region was spotted or injected intradennally 30-50 μl of the control solution or each treatment material. Wound regions were sealed with cathereep (Nichiban Co., Tokyo Japan) which was cut in size which are greater than that of wound region to prevent contamination of the wound regions and formation of crust. Then, the wound regions were protected with 2×2 gauze, and ears of rabbit were bandaged with elastopore (Nichiban Co., Tokyo Japan). Subsequently, the rabbits were bred in a cage per a rabbit. After 48 hrs, same procedure was repeated. On 4 days and 8 days after forming wound regions, sacrificing the rabbits and treating tissue for histological study. For histological study, wound tissues were fixed with 10% formalin, cut it in half longitudinally and made paraffin block. Then, approximately 5 μm of segment was made, attached it to slide and stained with hematoxylin and eosin to observe a change of epidermis and dermis, and stained with Massons Trichrome to observe a degree of collagen formation of granulation tissue.
# First, stained tissue specimen was calibrated with ocular micrometer of optical microscope for image analysis. Then, After photographing each histological change aspects with digital camera under 40× and 100× objective lens and saving them on computer (Pentium III), image analysis was carried out with Scion Image for Windows software which was provided by (C) 2000 Scion corporation as follows: that is, degree of epidermis migration could be determined by measuring the distance from left to right boundary of wound, and thickness of newly formed epidermis could be determined by measuring the thickness of three spots in 1 mm of pitch and averaging measured values. To compare with degree of granulation tissue formation of dermis, three methods were used: 1) A method of measuring total area of newly formed granulation tissue and comparing with it; 2) A method of counting the number of cells such as fibroblast presented in six spots of center region of wound under high magnification (100×) and comparing with it; and 3) A method of determining degree of angiogenesis by counting the number of capillaries in granulation tissue in a same way as described above. If there was eschar, it wasn't determined. The data obtained from the negative control group, the positive control group and the experinental group were analyzed statistically by carrying out paired student's t test. […]
# [2] = system: HUVEC (human umbilical vein endothelial cell); assay: Angiogenesis test of HUVEC (tube formation test); format: cell-based; settings: FIG. 4 and FIG. 5
# Experimental: Above suspension procedure was repeated twice.
# Matrigel was prepared as follows: First, collagen solution was prepared by mixing commercially available acid-soluble porcine type I collagen (3.0 mg/ml), 5× DMEM and buffer (0.05 N NaOH, 2.2% NaHCO3, 200 mM HEPES; 7:2:1), loaded to 24 well or 96 well (100-300 μl/well) dividedly, and then incubated for approximately 10 mins to form a gel due to polymerization of collagen. Primary culture was carried to obtain HUVEC (those which were passaged five times), removed cells at 37° C., washed cells with PBS, detached cells with trypsin/EDTA, loaded cells to wells (4-6×10^4 cells/well), and then fiuther incubated for 12-18 hrs.
# [3] = system: endothelial cells; assay: Migration assay of endothelial cells (Transwell); format: cell-based; settings: 0.1 μM, 1 μM and 5 μM; 2 hrs; fewer migrated cells with increasing concentration; FIG. 6 and FIG. 7
# Experimental: Transwell membranes were coated with 0.2% gelatin, and then were left for 12 hrs at 4° C. The membrane for control group was treated with BSA-PBS as described in the above examples, whereas the membranes for experimental group were treated with 0.1 μM, 1 μM and 5 μM of tetraacetylphytosphingosine solution according to the present invention respectively as described in the above examples. After incubating these membranes for 2 hrs, staining them with Diff Quick solution, and then observing them on slide glass.
compound,measurement,setting,value
"CCCCCCCCCCCCCC[C@@H](O)[C@@H](O)[C@H](CO)NC(C)=O [NAPS, N-acethylphytosphingosine]",Area of granulation tissue,[1],212%
same,Number of blood vessels,[1],96%
"CCCCCCCCCCCCCC[C@@H](O)[C@@H](O)[C@@H](N)CO [PS, phytosphingosine]",Area of granulation tissue,[1],112%
same,Number of blood vessels,[1],106%
"CCCCCCCCCCCCC/C=C/[C@@H](O)[C@@H](N)COP(=O)([O-])OCC[N+](C)(C)C [SPC, sphingosylphosphorylcholine]",Area of granulation tissue,[1],151%
same,Number of blood vessels,[1],148%
same,"increment of the area of granulation tissue, in words",[1],prompted increment
same,"increment of the number of blood vessels, in words",[1],prompted increment
tetraacetylphytosphingosine [TAPS],"formation of blood vessels (tube formation), in words",[2]; 0.1 μM,inhibited effectively a formation of blood vessels
same,"formation of blood vessels (tube formation), in words",[2]; 1 μM,inhibited nearly completely a formation of blood vessels
same,"number of blood vessels (angiogenesis), in words","[1]; 0.1 μM, 1 μM, 2 μM and 5 μM, 4 days after treatment, vs negative control, FIG. 1",inhibited angiogenesis greatly
same,"area of granulation tissue, in words","[1]; 0.1 μM, 1 μM, 2 μM and 5 μM, 4 days after treatment, vs negative control, FIG. 2",decreased the area of granulation tissue
same,Area of granulation tissue,[1],76%
same,Number of blood vessels,[1],31%
same,"increment of the area of granulation tissue, in words",[1],inhibited increment
same,"increment of the number of blood vessels, in words",[1],inhibited increment
same,"migration of endothelial cells, in words",[3],migration of endothelial cells were inhibited
